From patent publication US20250380697A1, “ISOXAZOLINE DERIVATIVE COMPOUND AND INSECTICIDAL COMPOSITION COMPRISING SAME” (KYUNG NONG CORPORATION, priority 2022, published 2025) come the findings set out here.

The structures appear in SMILES notation.

Holding throughout (format): in vivo
In one series the test system is Maruca vitrta. As to the kind of experiment: Pesticidal activity against Maruca vitrta, artificial feed-dipping method. The following applies: counted 24, 48, 72 hours, time not given. As for the experimental part: Cabbage (Daiya) leaves were cut into pieces with a size of 1 cm×1 cm×1 cm, dipped in the pesticide composition where the compound of Synthesis Example 2 was diluted (the solvent=distilled water+acetone 50,000 mg/L+Triton X-100 100 mg/L) for 30 seconds, and then sufficiently shade-dried by placing them on aluminum foil. In this case, the artificial feed used was prepared by a process, in which (1) 13 g of agar powder and 625 mL of secondary distilled water were added into a 1 L beaker and boiled in the microwave for 10 minutes; (2) the agar boiled in the microwave was added into a blender and then 75 g of soybean powder, 20 g of red bean powder, 10 g of malt powder, and 175 mL of secondary distilled water were added thereto and mixed together; and (3) after the resulting mixture was cooled to 50° C., 5 g of a vitamin mixture, 4 g of ascorbic acid, 1 g of sorbic acid, 1 g of β-sitosterol, 10 g of glucose, 10 g of cellulose, 3 g of cholesterol, 1.5 g of methyl-p-hydroxybenzoate, 0.5 g of aureomycin, and 0.4 g of fumidil B were added thereto, mixed together, and then thoroughly cooled. Before placing the artificial feed pieces in a petri dish (¢90 mm×15 mm), parafilm (5.1 cm×5.1 cm) was placed on top of a distilled water-treated filter paper (Ø90 mm) to maintain humidity, and the artificial feed pieces were placed on top of the parafilm.
Then, the second to the third instar larvae of Maruca vitrta were repeatedly inoculated 3-5 times, 10 larvae per inoculation. In this case, the Maruca vitrta larvae used were those purchased from the Bio Utilization Institute (Andong, Korea). Then, the Maruca vitrta larvae were stored under 16 hours of light: 8 hours of dark, 25±1° C., and 50-60% relative humidity, and the number of live Maruca vitrta larvae was counted 24, 48, and 72 hours after inoculation. Thereafter, the larvae mortality rate was calculated in the same manner as in Test Example 1 above.

Another series concerns Thrips tabaci Lindeman. As to the kind of experiment: Pesticidal activity against Thrips tabaci Lindeman, spray method. Particulars: adults, counted 24 and 48 hours, time not given, read-out: mortality rate, Thrips tabaci Lindeman. From the text:
A water-soaked filter paper (9.0 cm in diameter) was placed in an insect breeding dish (Lab Guide®) with a diameter of 9.0 cm and a height of 4.0 cm, and then parafilm (width 4.0 cm×height 4.0 cm) was placed thereon. Before being treated with a pesticide composition, 10 adult Thrips tabaci Lindeman were inoculated per petri dish using a No. 4 brush. In this case, Thrips tabaci Lindeman adults used were those collected in a place near the Andong National University (Korea) and bred for multiple generations. Then, the pesticide composition where the compound of Synthesis Example 2 was diluted (the solvent=distilled water+acetone 50,000 mg/L+Triton X-100 100 mg/L) was loaded into a 100 mL small sprayer, and sprayed 10-12 times at a distance of 30 cm and a height of 50 cm, and one cotyledons of soybean, which is a host plant, were added one at a time. Then, the Thrips tabaci Lindeman adults were stored under the conditions of 16 hours of light and 8 hours of darkness, 25±1° C., and relative humidity of 50-60%, and the number of live Thrips tabaci Lindeman adults was counted 24, and 48 hours after the inoculation. Thereafter, the larvae mortality rate was calculated in the same manner as in Test Example 1 above.

In a further series the test system is Manulea degenerella. As to the kind of experiment: Pesticidal activity against Manulea degenerella, spray method. The following applies: third instar larvae, counted 24, 48, 72 hours, time not given. From the text: A water-soaked filter paper (9.0 cm in diameter) was placed in an insect breeding dish (Lab Guide®) with a diameter of 9.0 cm and a height of 4.0 cm, and then parafilm (width 4.0 cm×height 4.0 cm) was placed thereon. Before treating with a pesticide composition, 10 of the third instar Manulea degenerella larvae were inoculated per breeding dish using a No. 4 brush. In particular, Manulea degenerella larvae used were those collected in Icheon, Gyeonggi-do (Korea). Then, the pesticide composition where the compound of Synthesis Example 2 was diluted (the solvent=distilled water+acetone 50,000 mg/L+Triton X-100 100 mg/L) was loaded into a 100 mL small sprayer, and sprayed 10-12 times at a distance of 30 cm and a height of 50 cm, and one cotyledons of a persimmon tree, which is a host plant, were added one at a time. Then, the Manulea degenerella larvae were stored under the conditions of 16 hours of light and 8 hours of darkness, 25±1° C., and relative humidity of 50-60%, and the number of live Manulea degenerella larvae was counted 24, 48, and 72 hours after the inoculation. Thereafter, the larvae mortality rate was calculated in the same manner as in Test Example 1 above.

Another series concerns Spodoptera exigua. In words: Pesticidal activity against Spodoptera exigua, leaf-dipping method. Particulars: counted 24, 48, 72 hours, time not given, read-out: mortality rate, Spodoptera exigua. As for the experimental part: Cabbage (Daiya) leaves were cut into pieces with a diameter of 5.8 cm, dipped in the pesticide composition where the compound of Synthesis Example 2 was diluted (the solvent=distilled water+acetone 50,000 mg/L+Triton X-100 100 mg/L) for 30 seconds, and sufficiently shade-dried. Then, the shade-dried cabbage leaves were placed in a petri dish (8.8 cm in diameter) covered with filter paper and repeatedly inoculated 3-5 times with the second to the third instar larvae of Spodoptera exigua, 10 larvae per inoculation. In particular, the Spodoptera exigua larvae used were those purchased from the Bio Utilization Institute (Andong, Korea). Then, the Spodoptera exigua larvae were stored under the conditions of 16 hours of light and 8 hours of dark, 25±1° C. and 50-60% relative humidity, and the number of live Spodoptera exigua larvae was counted 24, 48, and 72 hours after the inoculation. Thereafter, the larvae mortality rate was calculated in the same manner as in Test Example 1 above.

For another series, the system named is Spodoptera litura. In words: Pesticidal activity against Spodoptera litura, leaf-dipping method. Particulars: 48 h, read-out: mortality rate, Spodoptera litura.
Another series has as its system Phaedon brassicae. In words: Pesticidal activity against Phaedon brassicae, leaf-dipping method. The following applies: counted 24, 48, 72 hours, time not given, read-out: mortality rate, Phaedon brassicae. As for the experimental part:
Cabbage (Daiya) leaves were cut into pieces with a diameter of 5.8 cm, dipped in the pesticide composition where the compound of Synthesis Example 2 was diluted (the solvent=distilled water+acetone 50,000 mg/L+Triton X-100 100 mg/L) for 30 seconds, and sufficiently shade-dried. Then, the shade-dried cabbage leaves were is placed in a petri dish (8.8 cm in diameter) covered with filter paper and repeatedly inoculated 3-5 times with the larvae of Phaedon brassicae, 10 larvae per inoculation. In particular, the Phaedon brassicae larvae used were those which were bred in the Andong National University (Korea) for multiple generations.
After the inoculation, the Phaedon brassicae larvae were stored under the conditions of 16 hours of light and 8 hours of dark, 25±1° C. and 50-60% relative humidity, and the number of live Phaedon brassicae larvae was counted 24, 48, and 72 hours after the inoculation. Thereafter, the larvae mortality rate was calculated in the same manner as in Test Example 1 above.

For the compound `Cc1cc(C2=NOC(c3cc(Cl)cc(C(F)(F)F)c3)(C(F)(F)F)C2)ccc1C(=O)NC(=O)C1CC1` (racemic) [Synthesis Example 2], the “mortality rate, Maruca vitrta” value in the series with Maruca vitrta (0.1 ppm) and with Maruca vitrta (1 ppm) was 100% each time. Also, the mortality (usually the percentage killed) at 1 ppm worked out at 70% in the series on Thrips tabaci Lindeman, 100% in the series on Spodoptera exigua, 100% in the series on Spodoptera litura and 100% in the series on Phaedon brassicae. In addition, the mortality at 3 ppm stood at 90% in the series on Thrips tabaci Lindeman and 100% with Phaedon brassicae. Further, the mortality at 10 ppm in the series on Thrips tabaci Lindeman, in the series with Spodoptera exigua, in the series with Spodoptera litura and with Phaedon brassicae was 100% each time. Further, the “mortality rate, Manulea degenerella” value in the series on Manulea degenerella (0.1 ppm) and in the series with Manulea degenerella (1 ppm) was 100% in each case. Further, the mortality at 0.1 ppm in the series with Spodoptera litura was 100%.
Turning to `CON=CNC(=O)c1ccc(C2=NOC(c3cc(Cl)cc(Cl)c3)(C(F)(F)F)C2)cc1C` (stereo not drawn) [Comparative Example 1, fluxametamide], the “mortality rate, Maruca vitrta” value in the series on Maruca vitrta (0.1 ppm) stood at 23%; with Maruca vitrta (1 ppm), 90%. Moreover, the mortality at 1 ppm in the series with Thrips tabaci Lindeman came to 63%; in the series on Spodoptera exigua, 100%; in the series with Spodoptera litura, 100%; with Phaedon brassicae it was 100%. Also, the mortality at 3 ppm in the series on Thrips tabaci Lindeman stood at 83%; with Phaedon brassicae, 100%. Also, the mortality at 10 ppm amounted to 86% in the series with Thrips tabaci Lindeman, 100% in the series with Spodoptera exigua, 100% in the series with Spodoptera litura and 100% in the series on Phaedon brassicae. In addition, the “mortality rate, Manulea degenerella” value in the series on Manulea degenerella (0.1 ppm) is on record as 0%; in the series on Manulea degenerella (1 ppm), 16%%. In addition, the mortality at 0.1 ppm in the series with Spodoptera litura came out at 90%.
Consider `CNC(=O)c1cc(Cl)cc(C)c1NC(=O)c1cc(Br)nn1-c1ncccc1Cl` [Comparative Example 2, chlorantraniliprole], for which the “mortality rate, Maruca vitrta” value in the series on Maruca vitrta (0.1 ppm) is on record as 33%; in the series with Maruca vitrta (1 ppm) it was 83%. Also, the “mortality rate, Manulea degenerella” value in the series on Manulea degenerella (0.1 ppm) and in the series with Manulea degenerella (1 ppm) was 100% each time. Also, the mortality at 1 ppm in the series on Spodoptera exigua was 46%. Also, the mortality at 10 ppm in the series with Spodoptera exigua is 71%.
